In general, MIC refers to the smallest concentration in the dilution series that meets the test's criterion for growth inhibition.

Among the test systems are Escherichia coli UB1005; Candida albicans; Pseudomonas fluorescens; Ralstonia pickettii; Staphylococcus aureus; Aspergillus fumigatus; Bibersteinia trehalosi; Klebsiella pneumoniae; Pasteurella multocida; Trypanosoma cruzi; Citrobacter koseri; Escherichia coli BL21; Escherichia coli INV-a; Escherichia coli JM109; Pseudomonas aeruginosa; Salmonella enterica; Staphylococcus xylosus.

Common to all, as to experiment: ≥ marks a high value that may be exact or a test limit, other limits are often not marked, values filed in µg/mL are converted to µM
Experiment [1] has as its system Pseudomonas aeruginosa H374.
Experiment [2] concerns Pseudomonas aeruginosa H547.
The test system of experiment [3] is Pseudomonas aeruginosa H744.
In experiment [4] the test system is Pseudomonas aeruginosa K799.
Experiment [5] deals with Pseudomonas aeruginosa Z61.
Experiment [6] has as its system Salmonella enterica subsp. enterica serovar Typhimurium ATCC 14028s.
Experiment [7] concerns Achromobacter xylosoxidans.
Experiment [8] concerns Pseudomonas aeruginosa M1251.
Experiment [9] concerns Pseudomonas aeruginosa M1426.
In experiment [10] the test system is Pseudomonas aeruginosa M76.
Experiment [11] concerns Pseudomonas aeruginosa M917.
The test system of experiment [12] is Pseudomonas aeruginosa PAO1.
In experiment [13] the test system is Pseudomonas aeruginosa R70.
Experiment [14] has as its system Salmonella enterica serovar Typhimurium.
Experiment [15] deals with Stenotrophomonas maltophilia.
The test system of experiment [16] is Corynebacterium pseudotuberculosis ATCC 19410.
In experiment [17] the test system is Mannheimia haemolytica Serovar 1.
In experiment [18] the test system is Mannheimia haemolytica Serovar 2.
Experiment [19] concerns Mannheimia haemolytica Serovar 6.
In experiment [20] the test system is Salmonella enterica subsp. arizonae.
Experiment [21] has as its system Candida albicans ATCC 2002.
The subject of experiment [22] is Escherichia coli ATCC 25922.
Experiment [23] deals with Klebsiella pneumoniae CCRC 10694.
The subject of experiment [24] is Lactococcus lactis MG1363.
Experiment [25] has as its system Salmonella typhimurium CCRC 12947.
The subject of experiment [26] is Staphylococcus aureus ATCC 2592.
For experiment [27], the system named is Staphylococcus aureus CCRC 12652.
In experiment [28] the test system is Staphylococcus aureus CCRC 15211.
For experiment [29], the system named is Streptococcus alactolyticus.
Experiment [30] concerns Vibrio parahaemolyticus CCRC 10806.

The structures appear in SMILES notation. ≈ marks a conversion by molar mass, not a printed value. Some results are limits rather than exact numbers.

In the case of `CC[C@H](C)[C@H](NC(=O)[C@H](Cc1ccccc1)NC(=O)[C@H](CO)NC(=O)[C@H](CCCCN)NC(=O)[C@H](Cc1ccccc1)NC(=O)[C@@H](NC(=O)[C@H](CCCCN)NC(=O)[C@@H](N)Cc1c[nH]c2ccccc12)C(C)C)C(=O)N[C@@H](CCCCN)C(=O)N[C@@H](CCCCN)C(=O)N[C@@H](C)C(=O)N[C@@H](CO)C(=O)N[C@@H](CO)C(=O)N[C@@H](Cc1ccccc1)C(=O)N[C@@H](C)C(=O)N[C@@H](CCC(N)=O)C(=O)N[C@@H](CO)C(=O)N[C@H](C(=O)N[C@@H](CC(C)C)C(=O)N[C@@H](CC(=O)O)C(=O)O)C(C)C` [WKVFKSFIKKASSFAQSVLD], the MIC against Escherichia coli UB1005 is 4.75 µM (≈ 11 µg/mL); in [1] it was 27.6 µM (≈ 64 µg/mL); in [2], 27.6 µM (≈ 64 µg/mL); in experiment [3], 27.6 µM (≈ 64 µg/mL); in experiment [4], 27.6 µM (≈ 64 µg/mL); in experiment [5] it was 27.6 µM (≈ 64 µg/mL). The compound further came in with an MIC in [6] of 27.6 µM (≈ 64 µg/mL).

Regarding `CC(C)C[C@H](NC(=O)[C@H](C)NC(=O)[C@H](CCCCN)NC(=O)[C@H](CCCCN)NC(=O)[C@H](C)NC(=O)[C@H](CC(C)C)NC(=O)[C@H](CCCCN)NC(=O)[C@H](CCCCN)NC(=O)[C@H](CC(C)C)NC(=O)[C@H](CCCCN)NC(=O)[C@H](CCCCN)NC(=O)[C@H](CC(C)C)NC(=O)[C@H](CC(C)C)NC(=O)[C@H](CCCCN)NC(=O)[C@H](CCCCN)NC(=O)[C@H](CC(C)C)NC(=O)[C@H](C)NC(=O)[C@H](CCCCN)NC(=O)[C@H](CC(C)C)NC(=O)[C@H](C)NC(=O)[C@H](CC(C)C)NC(=O)[C@H](C)NC(=O)[C@@H](N)Cc1ccccc1)C(N)=O` [FALALKALKKLLKKLKKLAKKAL], the MIC is 12.4 µM (≈ 32 µg/mL) in experiment [7]; 24.8 µM (≈ 64 µg/mL) with Candida albicans; 1.55 µM (≈ 4 µg/mL) with Escherichia coli UB1005; 6.2 µM (≈ 16 µg/mL) in [8]; 6.2 µM (≈ 16 µg/mL) in experiment [9]; 12.4 µM (≈ 32 µg/mL) in experiment [10]. Besides, the MIC was no less than 49.6 µM in [11]; 3.1 µM (≈ 8 µg/mL) in experiment [12]; 6.2 µM (≈ 16 µg/mL) in [13]; 3.1 µM (≈ 8 µg/mL) in the experiment on Pseudomonas fluorescens; 1.55 µM (≈ 4 µg/mL) against Ralstonia pickettii; 3.1 µM (≈ 8 µg/mL) in experiment [14]. Also, the MIC worked out at 3.1 µM (≈ 8 µg/mL) in the experiment with Staphylococcus aureus and 1.55 µM (≈ 4 µg/mL) in experiment [15].

As to `CC[C@H](C)[C@H](NC(=O)[C@H](Cc1cnc[nH]1)NC(=O)[C@@H](NC(=O)[C@@H](NC(=O)[C@H](CCCCN)NC(=O)[C@H](CCCN=C(N)N)NC(=O)[C@@H](NC(=O)[C@@H](NC(=O)[C@H](CCCN=C(N)N)NC(=O)[C@@H](N)CCCN=C(N)N)[C@@H](C)CC)[C@@H](C)CC)[C@@H](C)CC)[C@@H](C)CC)C(=O)N[C@H](C(=O)N[C@@H](CCCCN)C(=O)N[C@@H](CCCCN)C(N)=O)[C@@H](C)CC` [RRIIRKIIHIIKK], the minimum inhibitory concentration (MIC) is 3.44 µM (≈ 5.8 µg/mL) against Aspergillus fumigatus; 11.9 µM (≈ 20 µg/mL) in the experiment with Bibersteinia trehalosi; 11.9 µM (≈ 20 µg/mL) in experiment [16]; greater than 11.9 µM with Klebsiella pneumoniae; 4.92 µM (≈ 8.3 µg/mL) in experiment [17]; 2.73 µM (≈ 4.6 µg/mL) in experiment [18]. Also, the MIC was 2.49 µM (≈ 4.2 µg/mL) in experiment [19]; 11.9 µM (≈ 20 µg/mL) against Pasteurella multocida; 0.356 µM (≈ 0.6 µg/mL) in experiment [12]; 11.9 µM (≈ 20 µg/mL) in experiment [20]; greater than 11.9 µM in the experiment with Staphylococcus aureus.

In the experiment with Trypanosoma cruzi, `CC[C@H](C)[C@H](NC(=O)[C@H](C)NC(=O)[C@H](CO)NC(=O)[C@@H](NC(=O)[C@H](C)NC(=O)[C@H](CC(N)=O)NC(=O)[C@@H](NC(=O)[C@H](C)NC(=O)[C@H](Cc1cnc[nH]1)NC(=O)[C@@H]1CCCN1C(=O)[C@@H](NC(=O)[C@H](CC(C)C)NC(=O)[C@H](CO)NC(=O)[C@H](CC(C)C)NC(=O)[C@@H](N)Cc1ccccc1)[C@@H](C)CC)[C@@H](C)CC)C(C)C)C(=O)N[C@@H](C)C(=O)N[C@@H](CCCCN)C(=O)N[C@@H](Cc1cnc[nH]1)C(=O)N[C@@H](CO)C(N)=O` [FLSLIPHAINAVSAIAKHS] gave an MIC of 15.1 µM (≈ 30 µg/mL).

Regarding `CC[C@H](C)[C@H](N)C(=O)N[C@@H](CC(N)=O)C(=O)N[C@@H](Cc1c[nH]c2ccccc12)C(=O)N[C@@H](CCCCN)C(=O)NCC(=O)N[C@H](C(=O)N[C@@H](C)C(=O)N[C@@H](C)C(=O)N[C@@H](CCSC)C(=O)N[C@@H](C)C(=O)N[C@@H](CCCCN)C(=O)N[C@@H](CCCCN)C(=O)N[C@@H](CC(C)C)C(=O)N[C@@H](CC(C)C)C(N)=O)[C@@H](C)CC` [INWKGIAAMAKKLL], the MIC was 2.38 µM (≈ 3.7 µg/mL) in [21]; 2.57 µM (≈ 4 µg/mL) against Citrobacter koseri; 4.82 µM (≈ 7.5 µg/mL) in experiment [22]; 5.14 µM (≈ 8 µg/mL) against Escherichia coli BL21; 8 µM (≈ 12.4 µg/mL) with Escherichia coli INV-a; 5.14 µM (≈ 8 µg/mL) in the experiment on Escherichia coli JM109. For the same compound, the MIC in experiment [23] is no less than 41.1 µM; in [24], 2.5 µM (≈ 3.89 µg/mL); against Pseudomonas aeruginosa, 164 µM (≈ 256 µg/mL); in the experiment on Salmonella enterica, 20.6 µM (≈ 32 µg/mL); in experiment [25], 20.6 µM (≈ 32 µg/mL); in [26], 2.38 µM (≈ 3.7 µg/mL). Further, the MIC is 20.6 µM (≈ 32 µg/mL) in experiment [27]; no less than 41.1 µM in experiment [28]; 1.93 µM (≈ 3 µg/mL) against Staphylococcus xylosus; 10.3 µM (≈ 16 µg/mL) in [29]; 20.6 µM (≈ 32 µg/mL) in [30].

For the origin of these results see DBAASP.
